Source: BindingDB's records for doi:10.1111/cbdd.12840 (Miranda House, 2017)
pIC50: −log10 of the molar value.

Molecular target: T1, Putative FAD-containing monooxygenase MymA (Mycobacterium tuberculosis (strain ATCC 25618 / H37Rv), UniProt P9WNF7)
T1 sequence (P9WNF7 whole entry): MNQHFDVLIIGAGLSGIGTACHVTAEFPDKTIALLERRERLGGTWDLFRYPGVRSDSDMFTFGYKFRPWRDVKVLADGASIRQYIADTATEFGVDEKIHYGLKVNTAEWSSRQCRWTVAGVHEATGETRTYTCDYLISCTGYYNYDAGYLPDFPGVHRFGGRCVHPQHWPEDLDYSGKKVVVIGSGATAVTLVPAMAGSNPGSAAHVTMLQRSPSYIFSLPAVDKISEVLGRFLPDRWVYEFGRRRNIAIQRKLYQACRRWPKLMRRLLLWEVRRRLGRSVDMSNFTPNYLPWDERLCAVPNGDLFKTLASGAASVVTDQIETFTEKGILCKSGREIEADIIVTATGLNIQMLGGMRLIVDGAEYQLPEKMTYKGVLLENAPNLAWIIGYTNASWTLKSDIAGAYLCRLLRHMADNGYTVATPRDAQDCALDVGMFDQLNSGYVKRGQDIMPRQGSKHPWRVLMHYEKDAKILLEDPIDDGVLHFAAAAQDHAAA
Test: MymA Inhibition Assay
Protocol: Inhibition of MymA activity by INH was checked using different concentrations (0-12 um) of INH, 100 um of trimeth-ylamine and 5 mg of MymA along with the other components in the enzyme assay as described above.

SMILES: NNC(=O)c1ccncc1 [4-pyridinecarbohydrazide(Isoniazid)]
- pIC50: 5.31
